Measured values reported in patent US9788539B2, “Platelet protection solution having beta-galactosidase and sialidase inhibitors” (Velico Medical, Inc., priority 2011, dated 2017).
Entries after “also recorded” stand apart in the source; their conditions may differ.

Tests used:
Assay type in all cases: cell-based
mouse platelets = assay: Surface receptor loss of mouse platelets stored at room temperature; conditions: DANA added during storage
[1] = system: Serratia marcescens strain (ATCC #43862); assay: Planktonic growth of S. marcescens in 96-well PVC plate; conditions: 1 mM DANA, 48 h, 30% plasma in PAS, 30% PC in PAS or 100% plasma
Method: Serratia marcescens strain (ATCC #43862) was purchased from American Type Culture Collection (Manassas, Va.). Cells were grown in brain-heart infusion broth (ATCC media 3) at 37° C. and 250 rpm. Frozen stocks were prepared from overnight culture and stored at −80° C. in brain-heart infusion broth containing 15% glycerol by volume. To prepare the seed culture, the cryostock of Serratia marcescens was inoculated into 3 mL of brain-heart infusion broth with a cotton swab and incubated at 37° C. with agitation at 250 rpm for 6 h. The cell density was determined at 600 nm on a dual wavelength spectrometer and diluted to 0.5 McFarland Standard (1.5×10^8 cells/mL) with sterile PBS. Ten μL of the diluted culture was inoculated into 140 μL of 30% plasma in PAS, 30% PC by volume in PAS or 100% plasma, supplemented with or without 1 mM DANA, in the wells of 96-well PVC plates (Corning Biosciences). For each media, six replicates were performed. Ten μL of PBS was inoculated into the control wells. The microtiter plates were then sealed with sterile porous film (VWR) and placed on a platform shaker. The cultures were incubated for 48 h with gentle shaking (˜100 rpm). […] The crystal violet retained by the biofilm was eluted with 200 μL of dimethyl sulfoxide (DMSO) or 30% acetic acid, and read at 595 nm.

[2] = system: Serratia marcescens strain (ATCC #43862); assay: Biofilm formation of S. marcescens, crystal violet; conditions: 1 mM DANA, 48 h, crystal violet A595 nm
Method: To prepare the seed culture, the cryostock of Serratia marcescens was inoculated into 3 mL of brain-heart infusion broth with a cotton swab and incubated at 37° C. with agitation at 250 rpm for 6 h. The cell density was determined at 600 nm on a dual wavelength spectrometer and diluted to 0.5 McFarland Standard (1.5×10^8 cells/mL) with sterile PBS. Ten μL of the diluted culture was inoculated into 140 μL of 30% plasma in PAS, 30% PC by volume in PAS or 100% plasma, supplemented with or without 1 mM DANA, in the wells of 96-well PVC plates (Corning Biosciences). For each media, six replicates were performed. Ten μL of PBS was inoculated into the control wells. The microtiter plates were then sealed with sterile porous film (VWR) and placed on a platform shaker. The cultures were incubated for 48 h with gentle shaking (˜100 rpm). The cultures were gently mixed and transferred to a polystyrene plate for the determination of planktonic cell density at OD 595 nm. The wells on the original microtiter plates were washed with 3×200 μL of PBS, air dried, stained for 15 min with an aqueous solution of 0.1% (wt/vol) crystal violet, rinsed with water, and air dried for 1 hr. The crystal violet retained by the biofilm was eluted with 200 μL of dimethyl sulfoxide (DMSO) or 30% acetic acid, and read at 595 nm.

human platelets = assay: Human platelets stored in plasma at RT, size and density by FSC/SSC; conditions: 72 h at RT in plasma

CC(=O)NC1C(O)C=C(C(=O)O)OC1C(O)C(O)CO (centres unmarked) [DANA]
GPIbα and GPV receptor expression of room temperature stored mouse platelets (mouse platelets): preserved receptors expression; also recorded: inhibited | bacterial growth (planktonic cell density) [1]: inhibited the bacterial growth under all conditions | formation of biofilm [2]: negatively impacted | platelet shape by side and forward scatter (human platelets; 0.5 mM DANA): visible improvement of the platelet shape | mean fluorescence intensity (MFI) of platelet count/SSC histogram (human platelets; with DANA vs without): increased
